According to ChEMBL document CHEMBL1201862, “PubChem BioAssay data set” (2004):
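How tested: cells in 96-well plates exposed to compound for 48 hours at five concentrations. GI50 marks 50% less growth.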 Activity calls are given as the source filed them. Cut-off read from the data, not from the text of the source: active = GI50 up to about 1.1 µM and inactive = higher.

Key:
Assay in all cases: NCI-60 cell line screen, 48 h
CCRF-CEM = test system: CCRF-CEM
NCI-H23 = test system: NCI-H23
EKVX = test system: EKVX
LXFL 529 = test system: LXFL 529
UACC-257 = test system: UACC-257
SW-620 = test system: SW-620
SK-MEL-5 = test system: SK-MEL-5
Malme-3M = test system: Malme-3M
A498 = test system: A498
SNB-75 = test system: SNB-75
TK-10 = test system: TK-10
CAKI-1 = test system: CAKI-1
NCI-H226 = test system: NCI-H226
HT-29 = test system: HT-29
M19-MEL = test system: M19-MEL
HL-60 = test system: HL-60
HOP-92 = test system: HOP-92
HCT-15 = test system: HCT-15
COLO 205 = test system: COLO 205
HCC 2998 = test system: HCC 2998
ACHN = test system: ACHN
SF-539 = test system: SF-539
UACC-62 = test system: UACC-62
LOX IMVI = test system: LOX IMVI
SNB-78 = test system: SNB-78
DLD-1 = test system: DLD-1
M14 = test system: M14
UO-31 = test system: UO-31
OVCAR-3 = test system: OVCAR-3
SK-MEL-2 = test system: SK-MEL-2
DMS-273 = test system: DMS-273
OVCAR-4 = test system: OVCAR-4
SF-295 = test system: SF-295
SF-268 = test system: SF-268
SN12C = test system: SN12C
HOP-62 = test system: HOP-62
OVCAR-8 = test system: OVCAR-8
RPMI-8226 = test system: RPMI-8226
A549 = test system: A549
NCI-H522 = test system: NCI-H522
786-0 = test system: 786-0
SK-MEL-28 = test system: SK-MEL-28
KM-20L2 = test system: KM-20L2
RXF 393 = test system: RXF 393
IGROV-1 = test system: IGROV-1
KM12 = test system: KM12
SNB-19 = test system: SNB-19
K562 = test system: K562
SK-OV-3 = test system: SK-OV-3
MOLT-4 = test system: MOLT-4
NCI-H460 = test system: NCI-H460
XF498 = test system: XF498
OVCAR-5 = test system: OVCAR-5
HCT-116 = test system: HCT-116
U-251 = test system: U-251
DMS-114 = test system: DMS-114

**Q.** Which GI50 (CCRF-CEM) does the source give for O=C1NC(=O)C2C(=O)NC(=O)C1C2(c1ccccc1)c1ccc(Cl)cc1 (stereo not given) here?
**A.** > 100 µM (inactive)

**Q.** What about the GI50 (NCI-H23) of the same compound?
**A.** > 100 µM (inactive)

**Q.** What about the GI50 (EKVX) of the same compound?
**A.** > 100 µM (inactive)

**Q.** And the GI50 (LXFL 529)?
**A.** > 100 µM (inactive)

**Q.** And the GI50 (UACC-257)?
**A.** > 100 µM (inactive)

**Q.** What about the GI50 (SW-620) of the same compound?
**A.** > 100 µM (inactive)

**Q.** And the GI50 (SK-MEL-5)?
**A.** > 100 µM (inactive)

**Q.** What about the GI50 (Malme-3M) of the same compound?
**A.** > 100 µM (inactive)

**Q.** And the GI50 (A498)?
**A.** > 100 µM (inactive)

**Q.** What about the GI50 (SNB-75) of the same compound?
**A.** > 100 µM (inactive)

**Q.** What about the GI50 (TK-10) of the same compound?
**A.** > 100 µM (inactive)

**Q.** And the GI50 (CAKI-1)?
**A.** > 100 µM (inactive)

**Q.** What about the GI50 (NCI-H226) of the same compound?
**A.** > 100 µM (inactive)

**Q.** What about the GI50 (HT-29) of the same compound?
**A.** > 100 µM (inactive)

**Q.** What about the GI50 (M19-MEL) of the same compound?
**A.** > 100 µM (inactive)

**Q.** What about the GI50 (HL-60) of the same compound?
**A.** > 100 µM (inactive)

**Q.** And the GI50 (HOP-92)?
**A.** > 100 µM (inactive)

**Q.** And the GI50 (HCT-15)?
**A.** > 100 µM

**Q.** What about the GI50 (COLO 205) of the same compound?
**A.** > 100 µM (inactive)

**Q.** And the GI50 (HCC 2998)?
**A.** > 100 µM (inactive)

**Q.** What about the GI50 (ACHN) of the same compound?
**A.** > 100 µM (inactive)

**Q.** And the GI50 (SF-539)?
**A.** > 100 µM (inactive)

**Q.** What about the GI50 (UACC-62) of the same compound?
**A.** > 100 µM (inactive)

**Q.** What about the GI50 (LOX IMVI) of the same compound?
**A.** > 100 µM (inactive)

**Q.** What about the GI50 (SNB-78) of the same compound?
**A.** > 100 µM (inactive)

**Q.** And the GI50 (DLD-1)?
**A.** > 100 µM (inactive)

**Q.** What about the GI50 (M14) of the same compound?
**A.** > 100 µM (inactive)

**Q.** And the GI50 (UO-31)?
**A.** > 100 µM (inactive)

**Q.** What about the GI50 (OVCAR-3) of the same compound?
**A.** > 100 µM (inactive)

**Q.** What about the GI50 (SK-MEL-2) of the same compound?
**A.** > 100 µM (inactive)

**Q.** What about the GI50 (DMS-273) of the same compound?
**A.** > 100 µM (inactive)

**Q.** What about the GI50 (OVCAR-4) of the same compound?
**A.** > 100 µM (inactive)

**Q.** What about the GI50 (SF-295) of the same compound?
**A.** > 100 µM (inactive)

**Q.** What about the GI50 (SF-268) of the same compound?
**A.** > 100 µM (inactive)

**Q.** What about the GI50 (SN12C) of the same compound?
**A.** > 100 µM (inactive)

**Q.** And the GI50 (HOP-62)?
**A.** > 100 µM (inactive)

**Q.** And the GI50 (OVCAR-8)?
**A.** > 100 µM (inactive)

**Q.** And the GI50 (RPMI-8226)?
**A.** > 100 µM (inactive)

**Q.** And the GI50 (A549)?
**A.** > 100 µM (inactive)

**Q.** What about the GI50 (NCI-H522) of the same compound?
**A.** > 100 µM (inactive)

**Q.** What about the GI50 (786-0) of the same compound?
**A.** > 100 µM (inactive)

**Q.** What about the GI50 (SK-MEL-28) of the same compound?
**A.** > 100 µM (inactive)

**Q.** What about the GI50 (KM-20L2) of the same compound?
**A.** > 100 µM (inactive)

**Q.** And the GI50 (RXF 393)?
**A.** > 100 µM (inactive)

**Q.** And the GI50 (IGROV-1)?
**A.** > 100 µM (inactive)

**Q.** And the GI50 (KM12)?
**A.** > 100 µM (inactive)

**Q.** And the GI50 (SNB-19)?
**A.** > 100 µM (inactive)

**Q.** What about the GI50 (K562) of the same compound?
**A.** > 100 µM (inactive)

**Q.** And the GI50 (SK-OV-3)?
**A.** > 100 µM (inactive)

**Q.** And the GI50 (MOLT-4)?
**A.** > 100 µM (inactive)

**Q.** What about the GI50 (NCI-H460) of the same compound?
**A.** > 100 µM (inactive)

**Q.** And the GI50 (XF498)?
**A.** > 100 µM (inactive)

**Q.** And the GI50 (OVCAR-5)?
**A.** > 100 µM (inactive)

**Q.** CC1=C(C(=O)Nc2cc(F)c(F)cc2F)C(c2ccc([N+](=O)[O-])cc2)C(C(=O)Nc2cc(F)c(F)cc2F)=C(C)N1 was tested. Which GI50 (CCRF-CEM) did it give?
**A.** 16.5 µM (inactive)

**Q.** And the GI50 (NCI-H23)?
**A.** 31.8 µM (inactive)

**Q.** And the GI50 (EKVX)?
**A.** 13.9 µM (inactive)

**Q.** What about the GI50 (LXFL 529) of the same compound?
**A.** 39.7 µM (inactive)

**Q.** What about the GI50 (UACC-257) of the same compound?
**A.** 28.7 µM (inactive)

**Q.** What about the GI50 (SW-620) of the same compound?
**A.** 48.2 µM (inactive)

**Q.** What about the GI50 (HCT-116) of the same compound?
**A.** 25.8 µM (inactive)

**Q.** What about the GI50 (SK-MEL-5) of the same compound?
**A.** 23.6 µM (inactive)

**Q.** What about the GI50 (Malme-3M) of the same compound?
**A.** 27.2 µM (inactive)

**Q.** And the GI50 (A498)?
**A.** 18.2 µM (inactive)

**Q.** And the GI50 (SNB-75)?
**A.** 8.26 µM (inactive)

**Q.** And the GI50 (TK-10)?
**A.** 22.5 µM (inactive)

**Q.** And the GI50 (CAKI-1)?
**A.** 18.5 µM (inactive)

**Q.** What about the GI50 (U-251) of the same compound?
**A.** 30.7 µM (inactive)

**Q.** And the GI50 (NCI-H226)?
**A.** 37.8 µM (inactive)

**Q.** What about the GI50 (HT-29) of the same compound?
**A.** 34.1 µM (inactive)

**Q.** What about the GI50 (M19-MEL) of the same compound?
**A.** 57.7 µM (inactive)

**Q.** And the GI50 (HL-60)?
**A.** 11.2 µM (inactive)

**Q.** And the GI50 (HOP-92)?
**A.** 12.8 µM (inactive)

**Q.** What about the GI50 (COLO 205) of the same compound?
**A.** 71.4 µM (inactive)

**Q.** What about the GI50 (HCC 2998) of the same compound?
**A.** 21.4 µM (inactive)

**Q.** What about the GI50 (ACHN) of the same compound?
**A.** 27.1 µM (inactive)

**Q.** And the GI50 (SF-539)?
**A.** 29.3 µM (inactive)

**Q.** And the GI50 (LOX IMVI)?
**A.** 80.2 µM (inactive)

**Q.** And the GI50 (SNB-78)?
**A.** 26.1 µM (inactive)

**Q.** What about the GI50 (DLD-1) of the same compound?
**A.** 30.5 µM (inactive)

**Q.** And the GI50 (M14)?
**A.** 54.2 µM (inactive)

**Q.** What about the GI50 (UO-31) of the same compound?
**A.** 13.1 µM (inactive)

**Q.** What about the GI50 (OVCAR-3) of the same compound?
**A.** 19.1 µM (inactive)

**Q.** What about the GI50 (SK-MEL-2) of the same compound?
**A.** 18 µM (inactive)

**Q.** What about the GI50 (OVCAR-4) of the same compound?
**A.** 18.5 µM (inactive)

**Q.** What about the GI50 (SF-295) of the same compound?
**A.** 56.1 µM (inactive)

**Q.** And the GI50 (SF-268)?
**A.** 22.2 µM (inactive)

**Q.** What about the GI50 (SN12C) of the same compound?
**A.** 40.7 µM (inactive)

**Q.** What about the GI50 (DMS-114) of the same compound?
**A.** 15.3 µM (inactive)

**Q.** And the GI50 (HOP-62)?
**A.** 19.6 µM (inactive)

**Q.** And the GI50 (OVCAR-8)?
**A.** 33.8 µM (inactive)

**Q.** And the GI50 (RPMI-8226)?
**A.** 14 µM (inactive)

**Q.** What about the GI50 (A549) of the same compound?
**A.** 37.8 µM (inactive)

**Q.** And the GI50 (NCI-H522)?
**A.** 15.7 µM (inactive)

**Q.** What about the GI50 (786-0) of the same compound?
**A.** 42.7 µM (inactive)

**Q.** And the GI50 (SK-MEL-28)?
**A.** 42.7 µM (inactive)

**Q.** What about the GI50 (KM-20L2) of the same compound?
**A.** 37.9 µM (inactive)

**Q.** What about the GI50 (RXF 393) of the same compound?
**A.** 10.6 µM (inactive)

**Q.** And the GI50 (IGROV-1)?
**A.** 28.2 µM (inactive)

**Q.** And the GI50 (KM12)?
**A.** 29.3 µM (inactive)

**Q.** What about the GI50 (SNB-19) of the same compound?
**A.** 48.6 µM (inactive)

**Q.** And the GI50 (K562)?
**A.** 24.2 µM (inactive)

**Q.** And the GI50 (SK-OV-3)?
**A.** 54.5 µM (inactive)

**Q.** What about the GI50 (MOLT-4) of the same compound?
**A.** 15 µM (inactive)

**Q.** What about the GI50 (NCI-H460) of the same compound?
**A.** 43.9 µM (inactive)

**Q.** What about the GI50 (OVCAR-5) of the same compound?
**A.** 35 µM (inactive)
